Key:
[1] = Biodistribution study (gross dissection and tissue harvest); format: in vivo, mice; conditions: dissection at 18 and 24 hrs post-inoculation
Experimental: […] Results are evaluated as the percent injected dose per gram of tissue. The organs assessed are the heart, blood, stomach, liver, spleen, adrenals, kidneys, bone, muscle, bladder, testes, as well as the abcess or site of infection.

[2] = target: T1, LFA-1 receptor (Mus musculus, UniProt P24063); assay: SPECT/CT imaging of mice after intravenous injection of the radioligand; format: in vivo
T1 construct: Leukocyte function-associated antigen-1 (LFA-1) receptors are normally expressed by all white blood cells; from tissue; host or cells: live mice (leukocytes in vivo)
T1 sequence (P24063 24-1162): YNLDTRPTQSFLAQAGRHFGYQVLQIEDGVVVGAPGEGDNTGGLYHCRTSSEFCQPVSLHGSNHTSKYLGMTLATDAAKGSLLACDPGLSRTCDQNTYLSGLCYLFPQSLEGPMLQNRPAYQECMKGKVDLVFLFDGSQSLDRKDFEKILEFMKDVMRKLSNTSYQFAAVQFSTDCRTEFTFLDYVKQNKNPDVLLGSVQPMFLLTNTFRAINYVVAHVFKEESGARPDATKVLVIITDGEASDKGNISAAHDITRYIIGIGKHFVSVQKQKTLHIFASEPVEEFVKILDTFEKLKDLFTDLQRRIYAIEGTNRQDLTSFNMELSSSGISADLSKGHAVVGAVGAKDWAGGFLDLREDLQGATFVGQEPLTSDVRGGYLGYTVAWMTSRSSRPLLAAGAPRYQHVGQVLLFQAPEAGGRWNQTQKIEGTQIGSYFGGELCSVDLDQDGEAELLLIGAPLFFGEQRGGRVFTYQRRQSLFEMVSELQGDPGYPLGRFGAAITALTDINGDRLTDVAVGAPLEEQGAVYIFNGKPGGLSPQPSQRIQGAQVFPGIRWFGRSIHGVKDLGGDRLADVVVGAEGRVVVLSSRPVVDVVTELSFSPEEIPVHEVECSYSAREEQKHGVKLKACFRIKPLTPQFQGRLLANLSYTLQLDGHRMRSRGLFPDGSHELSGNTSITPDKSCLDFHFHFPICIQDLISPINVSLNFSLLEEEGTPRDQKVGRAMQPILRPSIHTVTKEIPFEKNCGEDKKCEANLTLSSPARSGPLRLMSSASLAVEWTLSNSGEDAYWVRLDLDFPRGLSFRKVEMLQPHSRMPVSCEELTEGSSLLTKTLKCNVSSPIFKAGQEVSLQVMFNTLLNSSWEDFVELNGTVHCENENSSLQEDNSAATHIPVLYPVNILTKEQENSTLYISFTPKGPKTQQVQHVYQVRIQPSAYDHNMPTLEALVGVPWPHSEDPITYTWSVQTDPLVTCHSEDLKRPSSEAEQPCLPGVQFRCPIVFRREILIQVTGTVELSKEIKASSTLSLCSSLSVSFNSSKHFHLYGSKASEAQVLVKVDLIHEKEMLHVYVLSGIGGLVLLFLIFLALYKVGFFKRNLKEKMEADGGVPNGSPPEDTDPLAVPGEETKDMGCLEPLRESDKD
T1 sequence (P11835 24-771 partner): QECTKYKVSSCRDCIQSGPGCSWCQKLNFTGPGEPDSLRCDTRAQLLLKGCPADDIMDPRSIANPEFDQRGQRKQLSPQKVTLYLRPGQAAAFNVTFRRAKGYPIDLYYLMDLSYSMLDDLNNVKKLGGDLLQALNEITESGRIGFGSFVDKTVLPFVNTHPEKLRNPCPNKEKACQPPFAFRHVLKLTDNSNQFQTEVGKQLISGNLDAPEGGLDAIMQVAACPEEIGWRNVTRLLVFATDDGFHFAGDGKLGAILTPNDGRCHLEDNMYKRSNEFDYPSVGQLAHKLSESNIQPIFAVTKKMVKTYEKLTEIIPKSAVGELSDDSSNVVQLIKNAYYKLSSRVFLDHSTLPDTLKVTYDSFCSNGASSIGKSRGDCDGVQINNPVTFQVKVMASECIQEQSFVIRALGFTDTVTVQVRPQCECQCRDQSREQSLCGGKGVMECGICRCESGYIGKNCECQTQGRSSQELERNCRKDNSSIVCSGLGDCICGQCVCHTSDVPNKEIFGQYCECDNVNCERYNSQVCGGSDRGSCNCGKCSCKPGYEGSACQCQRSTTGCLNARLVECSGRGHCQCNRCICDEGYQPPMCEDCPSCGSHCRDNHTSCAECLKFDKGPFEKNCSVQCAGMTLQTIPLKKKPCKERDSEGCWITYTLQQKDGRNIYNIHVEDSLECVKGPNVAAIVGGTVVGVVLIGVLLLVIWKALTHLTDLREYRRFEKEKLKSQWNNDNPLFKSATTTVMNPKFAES
Experimental: Mice are imaged with the Bioscan NanoSPECT/CT imaging system. Dynamic images are obtained immediately following injection of ˜750 uCi of ^111In-ROTA-alkylamino-NorBIRT intravenously. Static images are also obtained at 2, 4, and 24 hours post injection. Images are individually characterized.

## ^111In-DOTA-alkylamino-NorBIRT [^111In-alkylaminoNorBIRT]
[1]
  agreement of biodistribution data with image-based pharmacokinetic data: correlate well with image-based pharmacokinetic data
[2]; 5 minutes post-injection
  uptake/retention at the tumor, early images: high concentrations
[2]; SPECT/CT images
  focal retention in other tissues: no focal retention in any other tissues
  radioactivity in the bladder: prompt and significant radioactivity in the bladder
[2]; SPECT/CT images, mice, i.v.
  uptake in the tumor in SPECT/CT images: focal uptake in the tumor
[2]; all time points, including 24 hours post-injection
  persistence of focal tumor uptake: persists at all time points
[2]; as soon as 5 minutes post-injection and at all subsequent time points
  urinary excretion in SPECT/CT images: prompt and significant urinary excretion
[2]; in vivo SPECT/PET imaging of tumor sites
  selectivity as imaging probe for LFA-1 receptor expression: highly selective imaging probes
